Laboratory results published in PubChem BioAssay AID588571 (Sanford-Burnham Center for Chemical Genomics, 2011).
The source made the active and inactive calls.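 Rule for the calls: active = mean IC50 at or below 20 µM; inactive = the rest.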

Tested on: CHO-CHOP cells viability, ATPlite luminescence, 6 h
Assay: cytotoxicity in CHO-CHOP reporter cells, SAR follow-up, cytotoxicity control for UPR adaptive arm activator project, cell-based, 6 h exposure, ATPlite luminescence (AID 588571)

SMILES | IC50
O=C(Nc1ccc(Cl)cc1)c1cc(-c2ccncc2)nc2ccccc12 | 75.4 µM (inactive)
Cc1cc(Br)cc(NC(=O)c2cc(-c3ccncc3)nc3ccccc23)c1 | > 80 µM (inactive)
O=C(Nc1ccc(F)cc1)c1cc(-c2ccncc2)nc2ccccc12 | > 80 µM (inactive)
O=C(Nc1ccc(Br)c(C(F)(F)F)c1)c1cc(-c2ccncc2)nc2ccccc12 | > 80 µM (inactive)
Cc1nc(Nc2nc(-c3ccccc3)cc(=O)[nH]2)nc2ccccc12 | 60.1 µM (inactive)
Cc1ccc(NC(=O)c2cc(-c3ccncc3)nc3ccccc23)cc1 | > 80 µM (inactive)
O=C(Nc1ccc(C(F)(F)F)cc1)c1cc(-c2ccncc2)nc2ccccc12 | 70.4 µM (inactive)
